The nature of this series: Stability of reconstituted [^18F]-FPPEGA in 1× PBS buffer. Type of series: physicochemical. Conditions: 37° C. The procedure:
An aqueous [^18F]-Fluoride solution (2.0 ml, 33.3 GBq/900 mCi) was purchased from P.E.T. Net® Pharmaceuticals in West Point PA and directly transferred to a Sep-Pak light QMA [The Sep-Pak light QMA cartridge was pre-conditioned sequentially with 5 ml of 0.5 M potassium bicarbonate, 5 ml of deionized water, and 5 ml of MeCN before use.] Upon completion of this transfer, the aqueous [^18F] fluoride was released from the QMA Sep-Pak by the sequential addition of potassium carbonate (15 mg/ml; 0.1 ml) followed by a mixture of potassium carbonate (30 mg/ml, 0.1 ml), 4,7,13,16,21,24-hexaoxa-1,10-diazabicyclo[8.8.8]hexacosane (15 mg, 0.04 mmol) and 1.2 ml of MeCN. The solvent was evaporated under a gentle stream of nitrogen at 90° C. and vacuum. Azeotropic drying was repeated twice with 1 ml portions of acetonitrile to generate the anhydrous K.2.2.2/K[^18F]F complex. […] The entire contents of the crude reaction mixture was then transferred, loaded, and purified using reverse phase HPLC under the following conditions: HPLC Column: Luna C18 250×10 Solvent A: 0.1% TFA in DI water; solvent B: 0.1% TFA in acetonitrile at a flow rate of 4.6 ml/minute using isocratic method 32% B while the UV was monitored at 280 nm. […]

The structures appear in SMILES notation.

For `[N-]=[N+]=NCCOCCOCCOCCOc1cccnc1[18F]` [[^18F]-3-(2-(2-(2-(2-azidoethoxy)ethoxy)ethoxy)ethoxy)-2-fluoropyridine], the “stable in 100% 1× PBS buffer” value is given as “over 1 hour”.

For the origin of these results see patent US11103605B2, “PET-imaging immunomodulators” (BRISTOL-MYERS SQUIBB COMPANY, priority 2016, dated 2021).
